pKd: −log10 of the molar value. Like-named read-outs stand apart in the source and are kept apart here. *1 amine or outer side, *2 acyl side, *3 side chain or, on linkers, in order; H or OH if unused. Where a SMILES comes first, the peptide text is derived from it. Bridges are numbered along the chain shown (N, C = ends). [ ]: non-standard residue; d: D form. The star is where a group is joined. hPhe(3,5-F2-4-CF3) = N[C@@H](CCc1cc(F)c(C(F)(F)F)c(F)c1)C(=O)O; hPhe(3-Cl-4-CF3) = N[C@@H](CCc1ccc(C(F)(F)F)c(Cl)c1)C(=O)O; NPrPhe(4-CF3) = CCCN[C@@H](Cc1ccc(C(F)(F)F)cc1)C(=O)O; X29 = CN([C@@H](CCCC=[*:3])C(=O)[*:2])[*:1]; dαMeAlg = C[C@](CC=[*:3])(N[*:1])C(=O)[*:2]; NMeGly(cPent) = CN[C@H](C(=O)O)C1CCCC1; Pro(4,4-F2) = O=C(O)[C@@H]1CC(F)(F)CN1; Hyp = O=C(O)[C@@H]1C[C@@H](O)CN1; Piperidide(4-Me) = CC1CCN(*)CC1; NMeD = CN[C@@H](CC(=O)O)C(=O)O; NMeL = CN[C@@H](CC(C)C)C(=O)O; Morpholide = C1CN(*)CCO1; NMeA = CN[C@@H](C)C(=O)O; Ac5c = NC1(C(=O)O)CCCC1; Aze = O=C(O)[C@@H]1CCN1; Ac4c = NC1(C(=O)O)CCC1; Sar = CNCC(=O)O

Assay [1] addresses GDP-bound KRAS wild-type protein (Homo sapiens, UniProt P01116). The experiment in a line: Binding to KRAS by surface plasmon resonance (SPR), Single Cycle Kinetics. The following applies: GDP-bound KRAS wild-type protein, read-out: KRAS KD.
Assay [2] has as its target GDP-bound HRAS wild-type protein (Homo sapiens, UniProt P01112). Put plainly: Binding to HRAS by surface plasmon resonance (SPR), Single Cycle Kinetics. The settings on record: for HRAS/KRAS (ratio of KD value for HRAS to KD value for KRAS): SPR, GDP-bound HRAS wild-type protein vs GDP-bound KRAS wild-type protein; for HRAS/KRAS (ratio of KD value with respect to GDP-bound HRAS wild-type protein to KD value with respect to KRAS): SPR KD ratio HRAS/KRAS, class symbols.

The target of assay [3] is GDP-bound NRAS wild-type protein (Homo sapiens, UniProt P01111). Put plainly: Binding to NRAS by surface plasmon resonance (SPR), Single Cycle Kinetics. The following applies: for NRAS/KRAS (ratio of KD value for NRAS to KD value for KRAS): SPR, GDP-bound NRAS wild-type protein vs GDP-bound KRAS wild-type protein; for NRAS/KRAS (ratio of KD value with respect to GDP-bound NRAS wild-type protein to KD value with respect to KRAS): SPR KD ratio NRAS/KRAS, class symbols.

[4] abbreviates: SPR Single Cycle Kinetics, 1:1 binding model.
Setting [5] is: SPR, Single Cycle Kinetics, 1:1 binding model.

Sequence of GDP-bound NRAS wild-type protein (P01111 whole entry): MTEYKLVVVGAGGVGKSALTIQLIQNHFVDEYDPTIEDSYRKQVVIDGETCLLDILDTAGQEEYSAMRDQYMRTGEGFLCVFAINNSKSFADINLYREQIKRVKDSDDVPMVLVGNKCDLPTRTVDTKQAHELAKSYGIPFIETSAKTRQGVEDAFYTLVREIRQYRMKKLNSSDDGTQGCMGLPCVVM
Sequence of GDP-bound KRAS wild-type protein (P01116 whole entry): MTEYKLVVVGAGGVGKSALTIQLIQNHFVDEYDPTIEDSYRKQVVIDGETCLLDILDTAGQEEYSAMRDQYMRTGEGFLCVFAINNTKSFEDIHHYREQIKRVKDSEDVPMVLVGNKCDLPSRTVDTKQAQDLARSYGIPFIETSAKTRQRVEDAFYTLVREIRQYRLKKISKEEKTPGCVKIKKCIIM
Sequence of GDP-bound HRAS wild-type protein (P01112 whole entry): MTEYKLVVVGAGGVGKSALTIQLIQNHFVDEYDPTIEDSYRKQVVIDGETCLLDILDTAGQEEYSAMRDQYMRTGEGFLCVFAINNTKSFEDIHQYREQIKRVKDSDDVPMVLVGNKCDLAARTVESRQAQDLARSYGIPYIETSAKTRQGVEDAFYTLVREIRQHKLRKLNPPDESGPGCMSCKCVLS

For orientation: pKd means the Kd on a negative log10 scale, so that one unit is a factor of ten. As for `CCCN1C(=O)CN(C)C(=O)CN(C)C(=O)[C@H]([C@@H](C)CC)NC(=O)[C@H](CC(C)C)N(C)C(=O)C[C@@H](C(=O)N2CCC(C)CC2)N(C)C(=O)[C@H](C2CCCC2)N(C)C(=O)C2(CCCC2)NC(=O)[C@@H]2CCCN2C(=O)[C@H](CCc2ccc(C(F)(F)F)c(Cl)c2)NC(=O)CN(C)C(=O)[C@@H]1Cc1ccc(C(F)(F)F)cc1` [PP0176] ([NMeL]I[Sar][Sar][NPrPhe(4-CF3)][Sar][hPhe(3-Cl-4-CF3)]P[Ac5c][NMeGly(cPent)][NMeD]-{Piperidide(4-Me)}; lactam N-11), the negative-log Kd (pKd) in assay [1] (setting [4]) is 9.26. Besides, in assay [2], the “HRAS/KRAS (ratio of KD value for HRAS to KD value for KRAS)” value was “C (A compound having a KD ratio of 0.1 or more and less than 3 is denoted as C)”. Moreover, the “NRAS/KRAS (ratio of KD value for NRAS to KD value for KRAS)” value in assay [3] is “B (a compound having 3 or more and less than 10 is denoted as B)”.
For the molecule `CCOC[C@H]1C(=O)N[C@@H]([C@@H](C)CC)C(=O)N(C)CC(=O)N(C)[C@H]2C/C=C\CCN(C2=O)[C@@H](CC2CCC(F)(F)CC2)C(=O)N(C)CC(=O)N[C@@H](CCc2ccc(C(F)(F)F)c(OC)c2)C(=O)N2C[C@H](OCC)C[C@H]2C(=O)N(C)C2(CCC2)C(=O)N(C)[C@@H](C(CC)CC)C(=O)N(C)[C@H](C(=O)N(C)C)CC(=O)N1C` [PP2347], in assay [1] (SPR, Single Cycle Kinetics), the negative-log Kd (pKd) is 8.80. Further, the “HRAS/KRAS (ratio of KD value for HRAS to KD value for KRAS)” value in assay [2] was “A (a compound having 10 or more and less than 20 is denoted as A)”. In assay [3], the “NRAS/KRAS (ratio of KD value for NRAS to KD value for KRAS)” value was “A (a compound having 10 or more and less than 20 is denoted as A)”.
For the molecule `CC[C@H](C)[C@@H]1NC(=O)[C@H](CC)N(C)C(=O)C[C@@H](C(=O)N(C)C)N(CC)C(=O)[C@H](C2CCCC2)N(C)C(=O)C2(CCC2)NC(=O)[C@@H]2CCCN2C(=O)[C@H](CCc2cc(F)c(C(F)(F)F)c(F)c2)NC(=O)CN(C)C(=O)[C@H](Cc2ccc(C(F)(F)F)cc2)N2CC/C=C\C[C@@H](C2=O)N(C)C(=O)CN(C)C1=O` [PP1106], the negative logarithm of the Kd (pKd) in assay [1] (SPR, Single Cycle Kinetics) was 9.09. In addition, the “HRAS/KRAS (ratio of KD value for HRAS to KD value for KRAS)” value in assay [2] is “A (a compound having 10 or more and less than 20 is denoted as A)”. Also, in assay [3], the “NRAS/KRAS (ratio of KD value for NRAS to KD value for KRAS)” value was “A (a compound having 10 or more and less than 20 is denoted as A)”.
Take `CCCN1C(=O)CN(C)C(=O)CN(C)C(=O)[C@H]([C@@H](C)CC)NC(=O)[C@@H]2CCCC=CC[C@@](C)(NC(=O)[C@@H]3C[C@@H](OCC)CN3C(=O)[C@H](CCc3cc(F)c(C(F)(F)F)c(F)c3)NC(=O)CN(C)C(=O)[C@@H]1Cc1ccc(C(F)(F)F)cc1)C(=O)N(C)[C@@H](C1CCCC1)C(=O)N(C)[C@H](C(=O)N1CCOCC1)CC(=O)N2C` [PP0901] ([X29]I[Sar][Sar][NPrPhe(4-CF3)][Sar][hPhe(3,5-F2-4-CF3)][Hyp](Et)[dαMeAlg][NMeGly(cPent)][NMeD]-Morpholide; staple 1-9; lactam N-11): in assay [1] (SPR, Single Cycle Kinetics), the pKd is 8.52. For the same molecule, the “HRAS/KRAS (ratio of KD value for HRAS to KD value for KRAS)” value in assay [2] is “B (a compound having 3 or more and less than 10 is denoted as B)”. For the same molecule, the “NRAS/KRAS (ratio of KD value for NRAS to KD value for KRAS)” value in assay [3] was “B (a compound having 3 or more and less than 10 is denoted as B)”.
Take `CCC[C@H]1C(=O)N[C@@H]([C@@H](C)CC)C(=O)N(C)CC(=O)N(C)[C@H]2C/C=C\CCN(C2=O)[C@@H](Cc2ccc(C(F)(F)F)cc2)C(=O)N(C)CC(=O)N[C@@H](CCc2cc(Cl)c3sccc3c2)C(=O)N2C[C@H](OCC)C[C@H]2C(=O)NC2(CC(C)(C)C2)C(=O)N(C)[C@@H](C(CC)CC)C(=O)N(C)[C@H](C(=O)N(C)C)CC(=O)N1C` [PP2888]: the pKd in assay [1] (setting [4]) is 9.41. Besides, the “HRAS/KRAS (ratio of KD value with respect to GDP-bound HRAS wild-type protein to KD value with respect to KRAS)” value in assay [2] was “A (a compound having 10 or more and less than 20 is denoted as A)”. Also, the “NRAS/KRAS (ratio of KD value with respect to GDP-bound NRAS wild-type protein to KD value with respect to KRAS)” value in assay [3] was “AA (a compound having 20 or more is denoted as AA)”.
Take `CCO[C@@H]1C[C@H]2C(=O)NC3(CCC3)C(=O)N(C)[C@@H](C3CCCC3)C(=O)N(C)[C@H](C(=O)N(C)CCOC)CC(=O)N(C)[C@@H](CC3CC3)C(=O)N[C@@H]([C@@H](C)CC)C(=O)N(C)CC(=O)N(C)[C@H]3C/C=C\CCN(C3=O)[C@@H](Cc3ccc(C(F)(F)F)cc3)C(=O)N(C)CC(=O)N[C@@H](CCc3cc(F)c(C(F)(F)F)c(F)c3)C(=O)N2C1` [PP1318]: the pKd in assay [1] (setting [5]) was 10.04. For the same molecule, the “HRAS/KRAS (ratio of KD value for HRAS to KD value for KRAS)” value in assay [2] (KD ratio class) was “A (a compound having 10 or more and less than 20 is denoted as A)”. The “NRAS/KRAS (ratio of KD value for NRAS to KD value for KRAS)” value in assay [3] (KD ratio class) is “A (a compound having 10 or more and less than 20 is denoted as A)”.
As for `CC[C@H](C)[C@@H]1NC(=O)[C@H](CC2CC2)N(C)C(=O)C[C@@H](C(=O)N(C)C)N(C)C(=O)[C@H](C2CCCC2)N(C)C(=O)C2(CCC2)NC(=O)[C@@H]2C[C@@H](C(F)(F)F)CN2C(=O)[C@H](CCc2cc(F)c(C(F)(F)F)c(F)c2)NC(=O)CN(C)C(=O)[C@H](Cc2ccc(C(F)(F)F)cc2)N2CC/C=C\C[C@@H](C2=O)N(C)C(=O)CN(C)C1=O` [PP1498], the pKd in assay [1] (setting [5]) was 10.16. For the same molecule, the “HRAS/KRAS (ratio of KD value for HRAS to KD value for KRAS)” value in assay [2] (KD ratio class) is “A (a compound having 10 or more and less than 20 is denoted as A)”. Moreover, in assay [3] (KD ratio class), the “NRAS/KRAS (ratio of KD value for NRAS to KD value for KRAS)” value was “A (a compound having 10 or more and less than 20 is denoted as A)”.
With `CCCN1C(=O)[C@@H]2CCN2C(=O)[C@H](C)N(C)C(=O)[C@H]([C@@H](C)CC)NC(=O)[C@H](CC(C)C)N(C)C(=O)C[C@@H](C(=O)N2CCOCC2)NC(=O)[C@H](C2CCCC2)N(C)C(=O)C2(CCCC2)NC(=O)[C@@H]2CC(F)(F)CN2C(=O)[C@H](CCc2ccc(C(F)(F)F)c(Cl)c2)NC(=O)CN(C)C(=O)[C@@H]1Cc1ccc(C(F)(F)F)cc1` [PP0345] ([NMeL]I[NMeA][Aze][NPrPhe(4-CF3)][Sar][hPhe(3-Cl-4-CF3)][Pro(4,4-F2)][Ac5c][NMeGly(cPent)]D-Morpholide; lactam N-11), the pKd in assay [1] (setting [4]) was 8.89. For the same molecule, in assay [2], the “HRAS/KRAS (ratio of KD value for HRAS to KD value for KRAS)” value is “B (a compound having 3 or more and less than 10 is denoted as B)”. In addition, in assay [3], the “NRAS/KRAS (ratio of KD value for NRAS to KD value for KRAS)” value is “C (A compound having a KD ratio of 0.1 or more and less than 3 is denoted as C)”.
For the molecule `CCCN1C(=O)[C@@H]2CCN2C(=O)CN(C)C(=O)[C@H]([C@@H](C)CC)NC(=O)[C@H](CC(C)C)N(C)C(=O)C[C@@H](C(=O)N2CCOCC2)NC(=O)[C@H](C2CCCC2)N(C)C(=O)C2(CCC2)NC(=O)[C@@H]2C[C@@H](OCC)CN2C(=O)[C@H](CCc2ccc(C(F)(F)F)c(Cl)c2)NC(=O)CN(C)C(=O)[C@@H]1Cc1ccc(C(F)(F)F)cc1` [PP0354] ([NMeL]I[Sar][Aze][NPrPhe(4-CF3)][Sar][hPhe(3-Cl-4-CF3)][Hyp](Et)[Ac4c][NMeGly(cPent)]D-Morpholide; lactam N-11), in assay [1] (setting [4]), the negative-log Kd (pKd) is 9.36. In addition, the “HRAS/KRAS (ratio of KD value for HRAS to KD value for KRAS)” value in assay [2] was “B (a compound having 3 or more and less than 10 is denoted as B)”. The “NRAS/KRAS (ratio of KD value for NRAS to KD value for KRAS)” value in assay [3] was “C (A compound having a KD ratio of 0.1 or more and less than 3 is denoted as C)”.
In the case of `CC[C@H](C)[C@@H]1NC(=O)[C@@H]2CCC/C=C/c3ccc(cc3)C[C@@H](C(=O)N(C)CC(=O)N[C@@H](CCc3ccc(Cl)c(Cl)c3)C(=O)N3C[C@H](OC(C)C)C[C@H]3C(=O)NC3(CC(C)(C)C3)C(=O)N(C)[C@@H](C3CCCC3)C(=O)N(C)[C@H](C(=O)N(C)CC)CC(=O)N2C)N2CC/C=C\C[C@@H](C2=O)N(C)C(=O)CN(C)C1=O` [PP2595], in assay [1] (setting [4]), the pKd is 9.77. The “HRAS/KRAS (ratio of KD value with respect to GDP-bound HRAS wild-type protein to KD value with respect to KRAS)” value in assay [2] was “B (a compound having 3 or more and less than 10 is denoted as B)”. In addition, the “NRAS/KRAS (ratio of KD value with respect to GDP-bound NRAS wild-type protein to KD value with respect to KRAS)” value in assay [3] was “A (a compound having 10 or more and less than 20 is denoted as A)”.

These data come from patent US20240158446A1, “CYCLIC COMPOUND HAVING SELECTIVE INHIBITORY ACTION ON KRAS OVER HRAS AND NRAS” (CHUGAI SEIYAKU KABUSHIKI KAISHA, priority 2021, published 2024).
